{"source": "paper PMC10527105", "about": "“Chirality Matters: Fine-Tuning of Novel Monoamine Reuptake Inhibitors Selectivity through Manipulation of Stereochemistry” (Biomolecules, 2023)", "system": "Schaffer collateral (SC)-CA1 synapses", "assay": "Ex vivo electrophysiology in hippocampal slices of aged rats", "design": "species or system Sprague–Dawley rats", "procedure": "Animals. Male Sprague–Dawley rats (22–23 months old) were bred and kept in the Core Unit of Biomedical Research, Division of Laboratory Animal Science and Genetics, Medical University of Vienna. Rats were housed in groups of two in standard Makrolon cages filled with autoclaved woodchips (temperature: 22 ± 2 °C; humidity: 55 ± 5%; 12 h artificial light/12 h dark cycle: light on at 7:00 am). Tap water and food were provided ad libitum. The study was carried out according to the guidelines of the ethics committee at the Medical University of Vienna and was approved by the Federal Ministry of Education, Science, and Culture, Austria (BMBWF-66.009/235/V/3b/2018).\nHippocampal Slices Preparation. Acutely dissected hippocampal slices obtained from rat singles administered with vehicle or 10 mg/kg for 7h (1 h prior to brain extraction) were prepared as previously described, with slight modifications. Briefly, rats were anesthetized by 50 s isoflurane inhalation exposure, and (upon the absence of corneal reflexes), animals were decapitated using a high-precision, hardened, sharp-blade rodent guillotine (DCAP-M, World Precision Instruments, Inc., Sarasota, FL, USA). […]\nExtracellular recording. […] An AxoClamp-2B amplifier, Digidata-1440 interface (Axon Instruments, Molecular Devices, Berkshire, UK), and pClamp-11 software (Molecular Devices, Berkshire, UK) were used for data acquisition and analysis. fEPSPs were recorded at 0.033 Hz. […]\nHippocampal synaptic potentiation was induced by delivering 4 trains of 20 pulses at 100 Hz (200 μs/pulse) with a 500 ms inter-train interval, a variant of the different forms of HFS protocol known to induce both post-tetanic potentiation (PTP) and long-term potentiation (LTP) in hippocampal CA3-CA1 hippocampal synapses in young rodents. Synaptic plasticity was assessed by quantifying the time course of changes in fEPSP slope (decaying phase) after applying the plasticity-inducing protocol, normalized to the average of all fEPSP slopes recorded during the preceding baseline recording period. […]", "data": [{"compound": "[O-][S@+](Cc1cccs1)[C@H](c1ccccc1)c1cccc(Br)c1", "note": "[Compound 8h, (R,R)-2-((((3-bromophenyl)(phenyl)methyl)sulfinyl)methyl)thiophene]", "values": [{"measurement": "basal synaptic transmission: fEPSP slopes (I/O curves) vs vehicle", "setting": "acute 10 mg/kg, aged rats (22–23 months), hippocampal slices", "value": "significantly enhanced"}, {"measurement": "long-term potentiation (LTP) after HFS vs vehicle", "setting": "acute treatment, aged rats, for at least 40 min after HFS", "value": "significantly increased and maintained LTP"}, {"measurement": "early post-tetanic potentiation (PTP) responses vs vehicle", "setting": "acute treatment, aged rats, right after HFS, Sidak post hoc p < 0.0001", "value": "statistically significant (p < 0.0001) enhancement"}]}]}
